Source: PubChem BioAssay AID298 (DTP/NCI, 2004)
“And” between values parts separate entries of the source, which are not always exact repeats. Identical values can stand only once. Results filed as inconclusive are left out.

System: MX-1 breast xenograft, intrarenal, nude mice, tumor weight
Assay: NCI In Vivo Anticancer Drug Screen. Data for tumor model Human Mammary Carcinoma MX-1 Xenograft (intrarenal inoculation) in NU/NU BALB/C (nude) mice
Conditions: endpoint: mean tumor weight change, higher = larger tumour
In short: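 Compounds were given to mice carrying transplanted tumors, and tumor size or survival was measured. Each value is the treated-group measurement (T) divided by the vehicle-treated control-group measurement (C).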

[1] = dose: 25.0 mg/kg/injection, schedule: Q04DX003 (ip), vehicle: saline
[2] = dose: 50.0 mg/kg/injection, schedule: Q04DX003 (ip), vehicle: saline
[3] = dose: 100.0 mg/kg/injection, schedule: Q04DX003 (ip), vehicle: saline
[4] = dose: 150.0 mg/kg/injection, schedule: Q04DX003 (ip), vehicle: saline with Tween-80
[5] = dose: 300.0 mg/kg/injection, schedule: Q04DX003 (ip), vehicle: saline with Tween-80
[6] = dose: 300.0 mg/kg/injection, schedule: Q04DX003 (sc), vehicle: saline with Tween-80
[7] = dose: 600.0 mg/kg/injection, schedule: Q04DX003 (sc), vehicle: saline with Tween-80
[8] = dose: 100.0 mg/kg/injection, schedule: Q04DX003 (sc), vehicle: saline
[9] = dose: 200.0 mg/kg/injection, schedule: Q04DX003 (sc), vehicle: saline
[10] = dose: 400.0 mg/kg/injection, schedule: Q04DX003 (sc), vehicle: saline

Question: What does the source list for [N-]=[N+]=[N-]?
Answer: T/C (dose: 1.5 mg/kg/injection, schedule: Q04DX003 (ip), vehicle: water): 66 % of control; T/C (dose: 6.0 mg/kg/injection, schedule: Q04DX003 (ip), vehicle: water): 66 % of control; T/C (dose: 12.0 mg/kg/injection, schedule: Q04DX003 (ip), vehicle: water): 64 % of control

Question: CC(C)N1C(=O)N(Cl)C2C1N(Cl)C(=O)N2Cl (stereo unspecified) was tested. Which T/C (dose: 25.0 mg/kg/injection, schedule: Q04DX003 (ip), vehicle: saline with Tween-80) did it give?
Answer: 113 % of control

Question: With CSc1cc(=O)n2c3ccccc3c3ccnc1c32 as the molecule, how does the T/C (dose: 80.0 mg/kg/injection, schedule: Q04DX003 (sc), vehicle: saline with Tween-80) read?
Answer: 89 % of control

Question: What about the T/C (dose: 160.0 mg/kg/injection, schedule: Q04DX003 (sc), vehicle: saline with Tween-80) of the same molecule?
Answer: 26 % of control

Question: And the T/C (dose: 320.0 mg/kg/injection, schedule: Q04DX003 (sc), vehicle: saline with Tween-80)?
Answer: 40 % of control

Question: Which T/C (dose: 3.0 mg/kg/injection, schedule: Q04DX003 (ip), vehicle: saline with Tween-80) does the source give for Cn1c(-c2ccc(/C=N\N3CCN(/N=C/c4ccc(-c5c[n+]6ccsc6n5C)cc4)CC3)cc2)c[n+]2ccsc12 here?
Answer: 79 % of control

Question: CC(=O)O[C@H]1C(=O)[C@@]2(C)[C@H]([C@H](OC(=O)c3ccccc3)[C@]3(O)C[C@H](OC(=O)[C@H](O)[C@@H](NC(=O)c4ccccc4)c4ccccc4)C(C)=C1C3(C)C)[C@]1(OC(C)=O)CO[C@@H]1C[C@@H]2O was tested. Which T/C (dose: 1.88 mg/kg/injection, schedule: Q01DX009 (ip), vehicle: Klucel (hydroxypropylcellulose) (HPC)) did it give?
Answer: 5 % of control and 16 % of control

Question: What about the T/C (dose: 2.5 mg/kg/injection, schedule: Q01DX009 (ip), vehicle: Klucel (hydroxypropylcellulose) (HPC)) of the same molecule?
Answer: 12 % of control

Question: And the T/C (dose: 3.75 mg/kg/injection, schedule: Q01DX009 (ip), vehicle: Klucel (hydroxypropylcellulose) (HPC))?
Answer: -80 % of control and -100 % of control

Question: What about the T/C (dose: 4.45 mg/kg/injection, schedule: Q01DX009 (ip), vehicle: Klucel (hydroxypropylcellulose) (HPC)) of the same molecule?
Answer: -100 % of control

Question: What about the T/C (dose: 5.0 mg/kg/injection, schedule: Q01DX009 (ip), vehicle: Klucel (hydroxypropylcellulose) (HPC)) of the same molecule?
Answer: -61 % of control

Question: What about the T/C (dose: 6.67 mg/kg/injection, schedule: Q01DX009 (ip), vehicle: Klucel (hydroxypropylcellulose) (HPC)) of the same molecule?
Answer: -100 % of control

Question: What about the T/C (dose: 7.5 mg/kg/injection, schedule: Q01DX009 (ip), vehicle: Klucel (hydroxypropylcellulose) (HPC)) of the same molecule?
Answer: -100 % of control

Question: And the T/C (dose: 10.0 mg/kg/injection, schedule: Q01DX009 (ip), vehicle: Klucel (hydroxypropylcellulose) (HPC))?
Answer: -84 % of control and -100 % of control

Question: And the T/C (dose: 15.0 mg/kg/injection, schedule: Q01DX009 (ip), vehicle: Klucel (hydroxypropylcellulose) (HPC))?
Answer: -100 % of control

Question: Which T/C (dose: 300.0 mg/kg/injection, schedule: Q04DX004 (sc), vehicle: saline) does the source give for O=[N+]([O-])c1nccn1CC(O)CO (stereo unspecified) here?
Answer: 96 % of control

Question: And the T/C (dose: 600.0 mg/kg/injection, schedule: Q04DX004 (sc), vehicle: saline)?
Answer: 91 % of control

Question: What about the T/C (dose: 2400.0 mg/kg/injection, schedule: Q04DX004 (sc), vehicle: saline) of the same molecule?
Answer: 93 % of control

Question: O=C(O)CC1C(=O)OC2C3COC(=O)c4cc(O)c(O)c(O)c4-c4c(cc(O)c(O)c4O)C(=O)OC2C(OC(=O)c2cc(O)c(O)c4c2C1C(O)C(=O)O4)C(OC(=O)c1cc(O)c(O)c(O)c1)O3 (stereo unspecified) was tested. Which T/C [1] did it give?
Answer: 120 % of control

Question: And the T/C [2]?
Answer: 99 % of control

Question: And the T/C [3]?
Answer: 73 % of control

Question: What does the source list for CCCCCCCCCCCCCCCCCCOCC(CO)OC (stereo unspecified)?
Answer: T/C [4]: 117 % of control; T/C [5]: 93 % of control; T/C (dose: 600.0 mg/kg/injection, schedule: Q04DX003 (ip), vehicle: saline with Tween-80): 81 % of control; T/C (dose: 1200.0 mg/kg/injection, schedule: Q04DX003 (ip), vehicle: saline with Tween-80): 46 % of control

Question: C[C@]12CC[C@H](O)CC1=CC[C@@H]1[C@@H]2CC[C@]2(C)C(=O)CC[C@@H]12 was tested. Which T/C [6] did it give?
Answer: 77 % of control

Question: What about the T/C [7] of the same molecule?
Answer: 76 % of control

Question: What about the T/C (dose: 1200.0 mg/kg/injection, schedule: Q04DX003 (sc), vehicle: saline with Tween-80) of the same molecule?
Answer: 63 % of control

Question: What about the T/C (dose: 2400.0 mg/kg/injection, schedule: Q04DX003 (sc), vehicle: saline with Tween-80) of the same molecule?
Answer: 68 % of control

Question: Which results are given for COC12[C@@H]3N[C@@H]3CN1C1=C(C(=O)C(NCCSSCCNC3=C(C)C(=O)C4=C(C3=O)C(COC(N)=O)[C@]3(OC)C5N[C@@H]5CN43)=C(C)C1=O)[C@@H]2COC(N)=O (stereo partly specified)?
Answer: T/C (dose: 3.12 mg/kg/injection, schedule: Q04DX003 (ip), vehicle: DMSO): 24 % of control; T/C (dose: 6.25 mg/kg/injection, schedule: Q04DX003 (ip), vehicle: DMSO): -41 % of control

Question: What does the source list for NCCSC(C[N+](=O)[O-])c1ccccc1Cl (stereo unspecified)?
Answer: T/C [1]: 86 % of control; T/C [2]: 86 % of control; T/C [3]: 85 % of control

Question: Which T/C (dose: 50.0 mg/kg/injection, schedule: Q04DX003 (sc), vehicle: saline) does the source give for Brc1c(NC2=NCCN2)ccc2nccnc12 here?
Answer: 69 % of control

Question: What about the T/C [8] of the same molecule?
Answer: 57 % of control

Question: And the T/C [9]?
Answer: 41 % of control

Question: What about the T/C [10] of the same molecule?
Answer: 23 % of control

Question: With CCCC1CCC(=C2C(=O)CCC2=O)O1 (stereo unspecified) as the molecule, how does the T/C [4] read?
Answer: 68 % of control

Question: Which T/C (dose: 25.0 mg/kg/injection, schedule: Q04DX003 (ip), vehicle: suspension in saline) does the source give for Oc1ccc(/C=N/Nc2nnc(N/N=C/c3ccc(O)cc3O)c3ccccc23)c(O)c1 here?
Answer: 50 % of control

Question: And the T/C (dose: 50.0 mg/kg/injection, schedule: Q04DX003 (ip), vehicle: suspension in saline)?
Answer: 102 % of control

Question: And the T/C (dose: 100.0 mg/kg/injection, schedule: Q04DX003 (ip), vehicle: suspension in saline)?
Answer: 115 % of control

Question: For Cc1nc(N)nc(N)c1N1CCN(c2ccc(C(=O)NC(C(=O)O)C(=O)O)cc2)CC1, which T/C (dose: 7.5 mg/kg/injection, schedule: Q04DX003 (ip), vehicle: Klucel + Tween-80) is on record?
Answer: 63 % of control

Question: What about the T/C (dose: 15.0 mg/kg/injection, schedule: Q04DX003 (ip), vehicle: Klucel + Tween-80) of the same molecule?
Answer: 76 % of control

Question: What about the T/C (dose: 30.0 mg/kg/injection, schedule: Q04DX003 (ip), vehicle: Klucel + Tween-80) of the same molecule?
Answer: 76 % of control

Question: And the T/C (dose: 60.0 mg/kg/injection, schedule: Q04DX003 (ip), vehicle: Klucel + Tween-80)?
Answer: 82 % of control

Question: Which results are given for CC(=O)C1=C(O)C2(O)C(=O)c3c(c(C)c4ccc(C)c(O)c4c3O)CC2C(N)C1=O (stereo unspecified)?
Answer: T/C [8]: 89 % of control; T/C [9]: 107 % of control; T/C [10]: 98 % of control; T/C (dose: 800.0 mg/kg/injection, schedule: Q04DX003 (sc), vehicle: saline): 84 % of control

Question: Which T/C (dose: 75.0 mg/kg/injection, schedule: Q04DX003 (ip), vehicle: saline with Tween-80) does the source give for COc1cc(O)c2c(O)c3c(c4c2c1[C@]1(C4)C(C)=CCCC1(C)C)[C@H](O)[C@@]1(O)CC(=O)C(C(N)=O)=C(O)[C@@]1(O)C3=O here?
Answer: 106 % of control

Question: For CNC(=S)C#N, which T/C (dose: 75.0 mg/kg/injection, schedule: Q04DX003 (ip), vehicle: saline + Tween-80 + alcohol) is on record?
Answer: 51 % of control

Question: With CCCCN1C(=O)N(c2ccc(OCC)cc2)C2N(CCCC)C1C(C)(C)C2(C)C (stereo unspecified) as the molecule, how does the T/C (dose: 15.0 mg/kg/injection, schedule: Q04DX003 (ip), vehicle: saline with Tween-80) read?
Answer: 90 % of control

Question: What about the T/C (dose: 30.0 mg/kg/injection, schedule: Q04DX003 (ip), vehicle: saline with Tween-80) of the same molecule?
Answer: 77 % of control

Question: What about the T/C (dose: 60.0 mg/kg/injection, schedule: Q04DX003 (ip), vehicle: saline with Tween-80) of the same molecule?
Answer: 89 % of control

Question: And the T/C (dose: 240.0 mg/kg/injection, schedule: Q04DX003 (ip), vehicle: saline with Tween-80)?
Answer: 98 % of control

Question: For Clc1ccccc1C(Nc1cnccn1)Nc1cnccn1, which T/C [5] is on record?
Answer: 70 % of control and 89 % of control

Question: Which T/C [6] does the source give for COC(=Nc1ccccc1)SSC(C)C here?
Answer: 90 % of control

Question: And the T/C [7]?
Answer: 99 % of control

Question: What does the source list for Nc1nc2ncn(O)c2c(=O)[nH]1?
Answer: T/C (dose: 25.0 mg/kg/injection, schedule: Q04DX003 (ip), vehicle: water): 25 % of control and 41 % of control; T/C (dose: 50.0 mg/kg/injection, schedule: Q04DX003 (ip), vehicle: water): 13 % of control

Question: NC(N)=NS(=O)(=O)c1ccc(NCc2c3ccccc3nc3ccccc23)cc1 was tested. Which T/C (dose: 150.0 mg/kg/injection, schedule: Q04DX003 (ip), vehicle: Klucel (hydroxypropylcellulose) (HPC)) did it give?
Answer: 38 % of control and 41 % of control

Question: What about the T/C (dose: 300.0 mg/kg/injection, schedule: Q04DX003 (ip), vehicle: Klucel (hydroxypropylcellulose) (HPC)) of the same molecule?
Answer: 40 % of control and 43 % of control

Question: What about the T/C (dose: 600.0 mg/kg/injection, schedule: Q04DX003 (ip), vehicle: Klucel (hydroxypropylcellulose) (HPC)) of the same molecule?
Answer: 17 % of control and 22 % of control

Question: And the T/C (dose: 1200.0 mg/kg/injection, schedule: Q04DX003 (ip), vehicle: Klucel (hydroxypropylcellulose) (HPC))?
Answer: 11 % of control and 17 % of control

Question: CC1[C@@H]2CC=C3[C@H]4CCC5Cc6nc7c(nc6C[C@@]5(C)C4CC(=O)[C@]32CO[C@]12OC(C)(C)CC2O)CC1CC[C@@H]2C3=C[C@H]4O[C@@]5(O[C@@](C)(CO)C[C@@H]5O)C(C)[C@@]4(O)[C@]3(C)[C@@H](O)CC2[C@]1(C)C7 (stereo partly specified) was tested. Which T/C (dose: 12.5 micrograms/kg/injection, schedule: Q04DX003 (ip), vehicle: saline + alcohol) did it give?
Answer: 123 % of control

Question: What about the T/C (dose: 25.0 micrograms/kg/injection, schedule: Q04DX003 (ip), vehicle: saline + alcohol) of the same molecule?
Answer: 78 % of control

Question: And the T/C (dose: 50.0 micrograms/kg/injection, schedule: Q04DX003 (ip), vehicle: saline + alcohol)?
Answer: 118 % of control

Question: And the T/C (dose: 100.0 micrograms/kg/injection, schedule: Q04DX003 (ip), vehicle: saline + alcohol)?
Answer: 100 % of control
